Data as given in patent US4505853A, “Enzyme-resistant immunomodulatory peptides” (Ortho Pharmaceutical Corporation, priority 1983, dated 1985).
Where a SMILES comes first, the peptide text is derived from it. Where no end group is shown, it is not given here. [ ]: non-standard residue; d: D form. The star is where a group is joined. Ac5c = NC1(C(=O)O)CCCC1; For = O=C*

Experiments:
[1] = test system: Leucine Amino Peptidase (LAP); test: Leucine Amino Peptidase (LAP) Degradation, amino acid analysis; format: in vitro ADME; settings: Asp, Pro, Val, Tyr, Arg all 0.00
From the text: Leucine Amino Peptidase (LAP) Degradation Asp, 0.00; Pro, 0.00; Val, 0.00; Tyr, 0.00; Arg.

[2] = test system: thymopoeitin receptor site (membrane glycoprotein of CEM cells); settings: 2.3×10^-10 M of 125I-TP, 4 g of binding protein, incubation 12 h
[3] = target: T1, porcine LAPcytosol (Leucine Aminopeptidase) (Sus scrofa, UniProt P28839); test: Stability of peptides against leucine aminopeptidase; format: in vitro ADME; settings: 1 × 10^-3 M peptide and 3 units/ml porcine LAPcytosol in 50 mM Tris pH 8.5 buffer with 5 mM MgCl2 at 37°
T1 sequence (P28839 1-519): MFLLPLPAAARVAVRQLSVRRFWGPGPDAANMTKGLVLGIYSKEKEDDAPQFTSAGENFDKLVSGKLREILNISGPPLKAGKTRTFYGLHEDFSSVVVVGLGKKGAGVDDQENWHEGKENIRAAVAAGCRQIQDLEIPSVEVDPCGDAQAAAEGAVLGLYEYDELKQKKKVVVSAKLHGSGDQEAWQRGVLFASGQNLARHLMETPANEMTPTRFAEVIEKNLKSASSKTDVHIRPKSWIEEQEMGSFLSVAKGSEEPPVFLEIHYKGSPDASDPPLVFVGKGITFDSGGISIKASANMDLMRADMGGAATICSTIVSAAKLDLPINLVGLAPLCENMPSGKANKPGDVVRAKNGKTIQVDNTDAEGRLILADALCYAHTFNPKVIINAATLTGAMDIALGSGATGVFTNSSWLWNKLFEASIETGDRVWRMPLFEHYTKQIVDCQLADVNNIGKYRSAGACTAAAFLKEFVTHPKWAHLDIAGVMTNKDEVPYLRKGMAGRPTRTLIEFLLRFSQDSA
Method: (§1) It has been determined that the half-life of thymopentin (thymopoeitin fragment 32-36) in serum is approximately one minute.
*1 × 10^-3 M peptide and 3 units/ml porcine LAPcytosol in 50 mM
Tris pH 8.5 buffer with 5 mM MgCl2 at 37°

[4] = Stability of peptides against human serum; format: in vitro ADME; settings: 1 μg/ml peptide in fresh human serum at 37°
Method: as §1
*1 μg/ml peptide in fresh human serum at 37°

[5] = target: T2, bovine carboxypeptidase A (Bos taurus, UniProt P00730); test: Stability of peptides against carboxypeptidase A; format: in vitro ADME; settings: 1 × 10^-3 M peptide and 0.05 units/ml bovine carboxypeptidase in pH 8.5 borate buffer at 37°
T2 sequence (P00730 111-419): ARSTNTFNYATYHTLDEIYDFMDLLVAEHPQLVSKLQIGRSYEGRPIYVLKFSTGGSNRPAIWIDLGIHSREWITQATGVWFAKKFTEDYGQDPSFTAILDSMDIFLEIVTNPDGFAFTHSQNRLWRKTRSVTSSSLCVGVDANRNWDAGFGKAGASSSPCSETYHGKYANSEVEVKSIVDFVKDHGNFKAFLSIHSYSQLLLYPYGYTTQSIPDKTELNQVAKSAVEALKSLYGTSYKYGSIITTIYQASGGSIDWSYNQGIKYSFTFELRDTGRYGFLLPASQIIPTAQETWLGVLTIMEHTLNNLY
Method: as §1
*1 × 10^-3 M peptide and 0.05 units/ml bovine carboxypeptidase
in pH 8.5 borate buffer at 37°

[6] = Enzymatic degradation / half-life in serum; format: in vitro ADME
From the text: as §1

[7] = test system: pro-Lyb-2 cells; test: Induction assay, Lyb-2+ B cells; format: cell-based; settings: B6-lyb-2.1 congenic mouse spleen cells, 3 hrs with inducer; controls without inducer <5% induced cells
Method: (§2) The compounds of the invention were tested following the induction assay procedure set out in Scheid, et al., J. Exp. Med. 147: 1727-1743 (1978) and also following a receptor assay procedure designed to measure displacement of radiolabelled thymopoeitin from a receptor site by the test peptides. A positive result on the induction assay indicates the ability of the test peptide to mimic the ability of thymopoeitin or splenin to induce precursor cells to immunocompetent T cells or T cells and B cells, respectively. A positive result on the receptor assay indicates the ability of the test peptide to bind to the thymopoeitin receptor site and thus to mimic thymopoeitin activity. The subject peptides are positive in the induction assay, while those in which X is ASP or D-ASP are also positive in the receptor assay.
(§3) The peptides of the invention wherein X is ASP or D-ASP are characterized by their ability to induce the selective differentiation of Thy-1^+ T cells (but not Lyb-2^+ B cells). Thy-1 is a differentiation alloantigen present on T cells but not B cells, whereas Lyb-2 is a differentiation alloantigen present on B cells but not T cells. Studies of these peptides in the induction assay in vitro show them to have the same induction specificity as thymopoietin. […]

[8] = test system: Prothymocytes (Thy-1^-); test: Induction assay, Thy-1+ T cells; format: cell-based; settings: B6-lyb-2.1 congenic mouse spleen cells, 3 hrs with inducer; controls without inducer <5% induced cells
Method: as §2, §3

## CC(=O)N[C@@H](CCCNC(=N)N)C(=O)N1CCC[C@H]1C(=O)N[C@@H](CC(=O)O)C(=O)N[C@H](C(=O)N[C@H](Cc1ccc(O)cc1)C(=O)O)C(C)C [IX, Nα-Acetyl-Arginyl-Prolyl-Aspartyl-Valyl-D-Tyrosine] (Ac-RPDV[dY]-OH)
[1]
  amino acids liberated by Leucine Amino Peptidase (LAP): no liberated amino acids were detected

## CNC(=O)[C@H](Cc1ccc(O)cc1)NC(=O)[C@@H](NC(=O)[C@H](CC(=O)O)NC(=O)[C@@H]1CCCN1C(=O)[C@H](CCCNC(=N)N)NC(C)=O)C(C)C [N-α-acetyl-ARG-PRO-ASP-VAL-TYR-NHCH3, Nα-Acetyl-Arginyl-Prolyl-Aspartyl-Valyl-Tyrosine-N-Methylamide] (Ac-RPDVY-NHMe)
[2]
  displacement of 125I-TP relative to that caused by thymopoietin self-displacement at equivalent concentrations: ≥ 50%

## CC(C)[C@H](NC(=O)[C@H](CC(=O)O)NC(=O)[C@@H]1CCCN1C(=O)[C@H](CCCNC(=N)N)NC=O)C(=O)N[C@@H](Cc1ccc(O)cc1)C(=O)O [N-α-formyl-ARG-PRO-ASP-VAL-TYR-OH, N^α -Formyl-Arginyl-Prolyl-Aspartyl-Valyl-Tyrosine] (For-RPDVY-OH)
[2]
  displacement of 125I-TP relative to that caused by thymopoietin self-displacement at equivalent concentrations: ≥ 50%

## CC(C)[C@H](NC(=O)[C@H](CC(=O)O)NC(=O)C1(NC(=O)[C@@H](N)CCCNC(=N)N)CCCC1)C(=O)N[C@@H](Cc1ccc(O)cc1)C(=O)O [NH2 --Arg--Cle--Asp--Val--Tyr--OH, Arginyl-Cycloleucyl-Aspartyl-Valyl-Tyrosine] (H-R[Ac5c]DVY-OH)
[3]
  Incubation time required for 50% degradation: > 1400 min

## C[C@H](N)C(=O)NCC(=O)N[C@H]1CSSC[C@@H](C(=O)O)NC(=O)[C@H](CO)NC(=O)[C@H]([C@@H](C)O)NC(=O)[C@H](Cc2ccccc2)NC(=O)[C@H]([C@@H](C)O)NC(=O)[C@H](CCCCN)NC(=O)[C@H](Cc2c[nH]c3ccccc23)NC(=O)[C@H](Cc2ccccc2)NC(=O)[C@H](Cc2ccccc2)NC(=O)[C@H](CC(N)=O)NC(=O)[C@H](CCCCN)NC1=O [somatostatin, reference compound]
[2]
  displacement of 125I-TP / receptor assay result, in words: no detectable displacement

## ACTH: adrenocorticotropic hormone (SYSMEHFRWGKPVGKKRRPVKVYPNGAEDESAEAFPLEF; Corticotropin; UniProt P01189 138-176, looked up) [reference compound]
[2]
  displacement of 125I-TP / receptor assay result, in words: no detectable displacement

## Ac-RPDAY [N-α-acetyl-ARG-PRO-ASP-ALA-TYR-OH, Nα-Acetyl-Arginyl-Prolyl-Aspartyl-Alanyl-Tyrosine]
[2]
  displacement of 125I-TP relative to that caused by thymopoietin self-displacement at equivalent concentrations: ≥ 50%

## Ac-RPDEY [N-α-acetyl-ARG-PRO-ASP-GLU-TYR-OH, N^α -Acetyl-Arginyl-Prolyl-Aspartyl-Glutamyl-Tyrosine]
[2]
  displacement of 125I-TP relative to that caused by thymopoietin self-displacement at equivalent concentrations: ≥ 50%

## Ac-RPDQY [N-α-acetyl-ARG-PRO-ASP-GLN-TYR-OH, Nα-acetyl-Arginyl-Prolyl-Aspartyl-Glutaminyl-Tyrosine]
[2]
  displacement of 125I-TP relative to that caused by thymopoietin self-displacement at equivalent concentrations: ≥ 50%

## Ac-RPDVY [N--Acetyl-Arg--Pro--Asp--Val--Tyr--OH, Nα-Acetyl-Arginyl-Prolyl-Aspartyl-Valyl-Tyrosine]
[4]
  Incubation time required for 50% degradation: 38 min
[2]
  displacement of 125I-TP relative to that caused by thymopoietin self-displacement at equivalent concentrations: ≥ 50%

## Ac-RPDVY-NH2 [N--Acetyl-Arg--Pro--Asp--Val--Tyr--NH2, N^α -acetyl-Arginyl-Prolyl-Aspartyl-Valyl-Tyrosine amide]
[4]; at 30 minutes
  Degradation in human serum, in words: no degradation
[3]
  Incubation time required for 50% degradation: > 1400 min
[5]
  Incubation time required for 50% degradation: > 1500 min
[2]
  displacement of 125I-TP relative to that caused by thymopoietin self-displacement at equivalent concentrations: ≥ 50%

## CRF: corticotropin-releasing factor (SEEPPISLDLTFHLLREVLEMARAEQLAQQAHSNRKLMEII; ends and bridges not checked; UniProt P06850 154-194, looked up) [reference compound]
[2]
  displacement of 125I-TP / receptor assay result, in words: no detectable displacement

## RKDVY [NH2 --Arg--Lys--Asp--Val--Tyr--OH, reference compound]
[4]
  Incubation time required for 50% degradation: 1.5 min
[3]
  Incubation time required for 50% degradation: 15 min
[5]
  Incubation time required for 50% degradation: 18 min
[6]; serum
  half-life in serum: approximately one

## RKEVY [Splenopentin]
[6]
  susceptibility to enzymatic degradation: highly susceptible to enzymatic degradation

## RPDVY [NH2 --Arg--Pro--Asp--Val--Tyr--OH]
[3]
  Incubation time required for 50% degradation: 230 min

## RPDVY-NH2 [NH2 --Arg--Pro--Asp--Val--Tyr--NH2, Arginyl-Prolyl-Aspartyl-Valyl-Tyrosinamide]
[4]
  Incubation time required for 50% degradation: > 20 min
[5]
  Incubation time required for 50% degradation: > 450 min
[2]
  displacement of 125I-TP relative to that caused by thymopoietin self-displacement at equivalent concentrations: ≥ 50%

## YRKDV [NH2 -TYR-ARG-LYS-ASP-VAL-OH]
[7]
  induction of Lyb-2.1^+ cells (B cells): no induction
[8]
  induction of Thy-1^+ cells (T cells): no induction

## growth hormone: comparison peptide in the receptor assay [reference compound]
[2]
  displacement of 125I-TP / receptor assay result, in words: no detectable displacement

## ubiquitin [reference compound]
[2]
  displacement of 125I-TP / receptor assay result, in words: no detectable displacement

## β-endorphin: comparison peptide in the receptor assay (YGGFMTSEKSQTPLVTLFKNAIIKNAYKKGE; Beta-endorphin; UniProt P01189 237-267, looked up) [reference compound]
[2]
  displacement of 125I-TP / receptor assay result, in words: no detectable displacement
